# Values of other authors as cited in publication PMC4806784 (Investigational new drugs, 2015).
# Where two headings read alike, the source gives them in different places.
# Conditions: 60 mg/m^2 q 3 week, cited from earlier work
# [1] = chemotherapy-naïve elderly patients with advanced non-small cell lung cancer, ref a more recent trial
# [2] = metastatic breast cancer, second line
compound,measurement,setting,value
CC(=O)O[C@@]12CO[C@@H]1C[C@H](O)[C@@]1(C)C(=O)[C@H](O)C3=C(C)[C@@H](OC(=O)[C@H](O)[C@@H](NC(=O)OC(C)(C)C)c4ccccc4)C[C@@](O)([C@@H](OC(=O)c4ccccc4)[C@H]21)C3(C)C [docetaxel],incidence of Grade 3 to 4 neutropenia,[1],89%
same,incidence of febrile neutropenia,[1],15%
same,incidence of Grade 3 to 4 neutropenia,[2],76%
same,incidence of febrile neutropenia,[2],5%
